The values below come from ChEMBL document CHEMBL5131496, “Adiponectin-Secretion-Promoting Cyclic Peptide-Polyketide Hybrids from a Halophyte-Associated Fungus, Colletotrichum gloeosporioides JS0417” (J Nat Prod, 2022).

Active and inactive are the calls of the source. The calls are words filed in the database; no cut-off is given here. Some results are limits rather than exact numbers.

In assay [1] the test system is Mesenchymal stem cells. Nature of the assay: Induction of adiponectin secretion in human differentiated BMMSC cells at 30 uM in the presence of IDX induction medium and measured on 5 day by ELISA relative to control. It is filed as functional. On the technique in general: An ELISA detects its analyte on a solid surface through an enzyme-linked reagent.
The subject of assay [2] is Mesenchymal stem cells. The assay can be described thus: Induction of adiponectin secretion in human differentiated BMMSC cells measured at 5 day in the presence of IDX induction medium by ELISA. It is filed as functional, cell-based. The settings on record: for EC50: 120 h.
Assay [3] deals with Mesenchymal stem cells. Nature of the assay: Induction of adiponectin secretion in human differentiated BMMSC cells assessed as increase in number of lipid droplet at 30 uM in the presence of IDX induction medium by Oil red O staining based inverted phase contrast microscope analysis. It is filed as functional, cell-based.
Assay [4] concerns Mesenchymal stem cells. Nature of the assay: Induction of adiponectin secretion in human differentiated BMMSC cells assessed as increase in size of lipid droplet at 30 uM in the presence of IDX induction medium by Oil red O staining based inverted phase contrast microscope analysis. It is filed as functional, cell-based.
Assay [5] relates to HaCaT. The assay can be described thus: Antiinflammatory activity against human HaCaT cells assessed as inhibition of UVB irradiation-induced PGE2 production measured after 2 hrs by ELISA. The settings on record: light or radiation study. The assay is classed as functional, cell-based.
Assay [6] deals with Mesenchymal stem cells. The assay can be described thus: Induction of adiponectin secretion in human differentiated BMMSC cells assessed as increase in lipid droplet accumulation at 300 uM in the presence of IDX induction medium by Oil red O staining based inverted phase contrast microscope analysis. The assay is classed as functional, cell-based.
For assay [7], the system named is HaCaT. The assay can be described thus: Antiinflammatory activity against human HaCaT cells assessed as inhibition of UVB irradiation-induced PGE2 production at 10 uM measured after 2 hrs by ELISA. The assay is classed as functional, cell-based.

By EC50 is commonly meant the concentration at which the effect is half-maximal. One may read the IC50 as the concentration that inhibits the measured activity by half.

`CC[C@H](C)[C@H]1C(=O)O[C@H]([C@@H](C)CCCC[C@@H](C)O)C[C@@H](O)[C@@H](C)C(=O)N[C@H](Cc2ccccc2)C(=O)N1C`: the Activity in assay [1] is listed as 123%. In addition, the EC50 in assay [2] was 22.7 µM. The result in assay [3] and in assay [4] was Active.

Regarding `CC(C)C[C@H]1NC(=O)[C@H](C)[C@H](O)C[C@@H]([C@@H](C)CCCC[C@@H](C)O)OC(=O)[C@H](CC(C)C)N(C)C1=O`, in assay [1], the Activity is 116%. The EC50 in assay [2] was found to be 29.4 µM. The result in assay [3] and in assay [4] was Active.

For the molecule `CCC(C)/C=C/CC(C)/C=C/C(=O)O[C@@H]1[C@@H](O)[C@H](c2c(C)cc(O)cc2O)O[C@H](CO)[C@H]1O` (stereo partly drawn), the Activity in assay [1] is given as 78%.

Turning to `CC(=O)Oc1ccccc1C(=O)O` [ASPIRIN], in assay [2], the EC50 was > 300 µM. The IC50 in assay [5] came out at 21.3 µM. Moreover, the outcome in assay [6] was Active.

As for `COc1ccc(Cl)cc1C(=O)NCCc1ccc(S(=O)(=O)NC(=O)NC2CCCCC2)cc1` [GLYBURIDE], the EC50 in assay [2] was determined as 2.8 µM.

`Oc1ccc(/C=C/c2cc(O)cc(O)c2)cc1` [RESVERATROL]: the IC50 in assay [5] was determined as 18.3 µM.

Take `OCCc1c[nH]c2ccccc12` [TRYPTOPHOL]: the result in assay [7] and in assay [6] was Active. Also, in assay [2] (DDE = dose-dependent effect), the Activity entry was “Dde”. The IC50 in assay [5] is 6.55 µM.
